Test results from patent US5196568A, “Compounds useful in enzymatic resolution systems and their preparation” (priority 1988, dated 1993).
≈ marks a conversion by molar mass, not a printed value. Structures can show the parent of a compound that is named as a salt. Blank lines part the entries; values can stand above or below the compound they belong to.

Tests used:
[1] = Solubility of esters, absorbance of saturated solutions at 262 nm; type: physicochemical; conditions: for water solubility: in water; for Solubility: saturated solution, pH 7 (50 mM phosphate buffer), room temperature
[2] = test system: Candida lipase, Sigma L-1754 (Enzyme H); test: Asymmetric hydrolysis in a multiphasic bioreactor with Enzyme H
Experimental: The enzyme solution was recirculated from the shell side to the lumen side and back to the solution reservoir in an ultra-filtration mode. […] The procedure was completed in one hour.
The recirculation rate was 400 ml/min and the average pressure on the shell compartment was kept at 6.5 psi by adjusting a throttling valve at the shell side exit. On the lumen side 1 liter of 0.05M K2 PO4 was recirculated at a rate of 400 ml/min. The pH of the aqueous reservoir was kept at 7.0 by addition of 1M NaOH. The reactor was run continuously for 6.8 days.
The reaction progress and rate were monitored by following the caustic consumption.

[3] = target: T1, Protease VIII "Subtilopeptidase A" (Enzyme B) (Bacillus licheniformis, UniProt P00780); test: Rates of hydrolysis of the two enantiomers, pH stat, Enzyme B; type: biochemical; conditions: for Rate (hydrolysis): 50 mM ester, 50 mM Na3PO4 buffer pH 7.6
T1 sequence (P00780 106-379): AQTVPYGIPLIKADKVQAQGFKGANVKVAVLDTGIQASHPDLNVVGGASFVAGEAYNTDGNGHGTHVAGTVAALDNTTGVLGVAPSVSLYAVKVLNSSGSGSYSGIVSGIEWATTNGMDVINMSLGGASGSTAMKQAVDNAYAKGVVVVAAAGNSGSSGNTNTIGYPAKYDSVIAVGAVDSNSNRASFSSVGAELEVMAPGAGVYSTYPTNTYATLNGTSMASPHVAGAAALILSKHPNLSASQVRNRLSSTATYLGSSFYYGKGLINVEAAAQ
Experimental: (§1) 15 ml of a solution containing one enantiomer of the ester at a concentration of 50 mM, and Na3 PO4 buffer at 50 mM and pH 7.6 was observed using a pH stat device. 0.1 ml of a 50 mg/ml solution of enzyme B, made up from the commercially available preparation in 50 mM Na3 PO4 buffer at pH 7.6, were added. Rates of hydrolysis of both enantiomers of the ester compound were determined for the enzyme. The ratio of the rates of hydrolysis for the two enantiomers for the two enantiomers with respect to the enzyme indicate the stereospecificity of that enzyme's hydrolytic action on the racemic mixture of the ester. No evidence for the hydrolysis of the acetylthio ester portion of the substrate molecule was found.

[4] = test system: Protease XIV from Streptomyces griseus (Enzyme I); test: Rates of hydrolysis of the two enantiomers, pH stat, Enzyme I; type: biochemical; conditions: for Rate (hydrolysis): 50 mM ester, pH 7.6
Experimental: as §1, with “solution of protease enzyme I,” for “solution of enzyme B,”, “protease enzyme I, made up” for “of enzyme B, made up”, “for the protease enzyme. The” for “for the enzyme. The”

[5] = target: T2, Protease XXVII "Nagarse" (Enzyme D) (Bacillus amyloliquefaciens, UniProt P00782); test: Rates of hydrolysis of the two enantiomers, pH stat, Enzyme D; type: biochemical; conditions: for Rate (hydrolysis): 50 mM ester, pH 7.6
T2 construct: purchased Protease XXVII
T2 sequence (P00782 108-382): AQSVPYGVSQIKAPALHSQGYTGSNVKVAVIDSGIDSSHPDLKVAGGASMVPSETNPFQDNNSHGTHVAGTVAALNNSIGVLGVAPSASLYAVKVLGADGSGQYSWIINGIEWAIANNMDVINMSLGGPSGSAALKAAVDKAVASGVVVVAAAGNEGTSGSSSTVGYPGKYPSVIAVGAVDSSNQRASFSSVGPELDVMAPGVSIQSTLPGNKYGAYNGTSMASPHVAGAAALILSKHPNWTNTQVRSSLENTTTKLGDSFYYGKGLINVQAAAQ
Experimental: as §1, with “D,” for “B,”, “thioacetyl” for “acetylthio”

[6] = target: T3, Protease XXIV bacterial protease (Enzyme J) (Bacillus licheniformis, UniProt P00780); test: Rates of hydrolysis of the two enantiomers, pH stat, Enzyme J; type: biochemical; conditions: for Rate (hydrolysis): 50 mM ester, pH 7.6
T3 sequence (P00780 106-379): T1 sequence (P00780 106-379)
Experimental: as §1, with “Enzyme J,” for “enzyme B,”

[7] = test system: Protease XXIII from Aspergillus oryzae (Enzyme A); test: Rates of hydrolysis of the two enantiomers, pH stat, Enzyme A; type: biochemical; conditions: for Rate (hydrolysis): 50 mM ester, pH 7.6
Experimental: 15 ml of a solution containing one enantiomer of the ester at a concentration of 50 mM, and Na3 PO4 buffer at 50 mM and pH 7.6 was observed using a pH stat device. 0.1 ml of a 50 mg/ml solution of enzyme A, made up from
as §1, with “the” for “15 ml of a solution containing one enantiomer of the ester at a concentration of 50 mM, and Na3 PO4 buffer at 50 mM and pH 7.6 was observed using a pH stat device. 0.1 ml of a 50 mg/ml solution of enzyme B, made up from the”

[8] = test system: Candida lipase, Genzyme (Enzyme G); test: Asymmetric hydrolysis in a multiphasic bioreactor with Enzyme G
Experimental: 3.0 grams of the lipase were dissolved in 500 mls of distilled water; this solution was recirculated in an ultrafiltration mode from the shell into the lumen and back to the reservoir for 30 minutes. The ultrafiltrate was then collected until the reservoir was empty, and methyl isobutyl ketone (MIBK) was then pumped into the shell and recirculated at 400-450 ml/min with a 5-7 psig shell pressure to remove any remaining enzyme solution from the shell.
A reactor was prepared as described in Example 6.2.2.5 (naproxen) using essentially the same mode of loading the enzyme, 3.0 grams of Candida lipase (Enzyme G, from Genzyme Corporation) were ultrafiltered from the shell into the lumen. […] The module was then drained.
No organic solvent was required as the substrate is already a water-immiscible liquid. Phosphate buffer was immediately pumped into the lumen and recirculated at 400-450 ml/min.
The reaction was monitored by following acid production based on hydroxide titration data. […] The aqueous buffer was replaced after 76 minutes and acidified to pH 2.0 with concentrated HCl in the presence of about 200 ml of chloroform.

[9] = test system: Protease XXIII from Aspergillus oryzae (Enzyme A); test: Homogeneous aqueous enzymatic resolution (ester hydrolysis) with Enzyme A; type: biochemical; conditions: 100 mg enzyme A
Experimental: No further purification was performed.

[10] = test system: protease Prozyme 6 (Enzyme F); test: Homogeneous aqueous enzymatic resolution with Enzyme F; type: biochemical, Aspergillus oryzae; conditions: for % e.e.: naproxen acid product (R), 100 mg Prozyme 6, pH 7.0, 25 C
Experimental: The enzymatic reaction mixtures were capped and briefly shaken until all the substrate had dissolved, and the enzyme had completely dissolved or dispersed. […] Evaporation of the ether left a white solid. The result is summarized below in Table 11 Rotations were measured at c=1 in CHCl3.
The enzymatic reaction mixtures were capped and briefly shaken until all the substrate had dissolved, and the enzyme had completely dissolved or dispersed. […] Evaporation of the ether left a white solid. Rotations were measured at c=1 in CHCl3.
The reaction was started by adding 100 mg of the protease (F) from the fungus Aspergillus oryzae (from Amano Enzyme Corporation, Prozyme 6, 60,000 units per mg of solid).
After 20 hours at room temperature, the solution was acidified to pH 2 and extracted with 3 volumes of diethyl ether. The aqueous phase was saved for subsequent workup. The ether phase was washed with two volumes of distilled water and then one volume of saturated sodium chloride, and then it was dried over MgSO4 and subsequently evaporated to dryness. The resolved ibuprofen product recovered was 930 mg of white powder, indicating 45% conversion of racemic ester to acid. The optical rotation was -0.580° (measured at c=1 in ethanol), indicating the R isomer of ibuprofen.
35 mg of protease Enzyme F, as the commercial preparation Prozyme 6, were added to the aqueous solution. The reaction flask was capped, and briefly shaken until all the enzyme had dissolved or dispersed. […] The resulting mixture was diluted with one volume of water and was extracted with diethyl ether (2 times 200 ml). The ether layers were combined and backwashed with water (2 times 200 ml), saturated NaCl solution (200 ml), and then dried over MgSO4.
In this control run, a 0.5M ester solution of (1) was prepared in 325 ml of 0.1M sodium phosphate buffer (pH 7.0). The reaction was started by adding 3 gm of the above enzyme (F). The pH was controlled at 7.0 with 8.22M sodium hydroxide. After 6.49 hours at 30° C., 6.63 ml of hydroxide were added, indicating 37.7% conversion. The reaction was allowed to continue overnight and, after 23.1 hours, a total of 7.2 ml of sodium hydroxide were added, indicating 40.9% conversion.

SMILES: CC(=O)SC[C@H](C)C(=O)OCS(=O)(=O)O [Compound 15, Potassium Salt of the Sulfomethyl Ester of L-(+)-S-3-Acetylthio-2-methylpropanoic Acid]
Rate Ratio L/D [3]: 2.1
Rate (hydrolysis) [3]: 135 umols/hr/mg
Rate Ratio L/D [4]: 1.7
Rate (hydrolysis) [4]: 105 umols/hr/mg
Rate Ratio L/D [5]: 1.1
Rate (hydrolysis) [5]: 29 umols/hr/mg
Rate Ratio L/D [6]: 1.1
Rate (hydrolysis) [6]: 65 umols/hr/mg
Rate Ratio L/D [7]: 2.3
Rate (hydrolysis) [7]: 12 umols/hr/mg

SMILES: COC(=O)C(C)c1ccc2cc(OC)ccc2c1 (racemic) [Compound 18, Methyl Ester of 2-(6-Methoxy-2-naphthyl)propanoic Acid]
average rate (hydrolysis) ([8]; first 45 minutes, 0.75M ester in MIBK, pH 8.50, 3.0 grams lipase): 35 µmol/h

SMILES: COc1ccc2cc(C(C)C(=O)OCC[N+](C)(C)C)ccc2c1 (centres unmarked) [Compound 11, Methyl Sulfate Salt of 2-(N,N,N-Trimethylammonium)ethyl Ester of 2-(6-Methoxy-2-naphthyl)propanoic Acid]
% e.e. ([10]; 18 hours): 34.0%

SMILES: CC(=O)SC[C@@H](C)C(=O)OCS(=O)(=O)O [Compound 14, Potassium Salt of the Sulfomethyl Ester of D-(-)-S-3-Acetylthio-2-methylpropanoic Acid]
Rate (hydrolysis) [3]: 65 umols/hr/mg
Rate (hydrolysis) [4]: 63 umols/hr/mg
Rate (hydrolysis) [5]: 27 umols/hr/mg
Rate (hydrolysis) [6]: 61 umols/hr/mg
Rate (hydrolysis) [7]: 5.3 umols/hr/mg

SMILES: COCCOC(=O)C(C)c1ccc(CC(C)C)cc1 (centres unmarked) [Methoxyethyl ester of ibuprofen, reference compound]
Solubility [1]: 0.18 mM (≈ 47.6 µg/mL)

Now from value to compound, other results behind:

water solubility [1]: approximately 1.2 mM
Solubility [1]: 1.2 mM (≈ 265 µg/mL)
SMILES: CCCCCCCCOC(=O)C(C)Cl (centres unmarked) [Compound 20, Octyl Ester of 2-Chloropropanoic Acid]
initial ester hydrolyzed ([2]; at termination, 6.8 days): 41%
rate of ester hydrolysis ([2]; at the beginning of the experiment, pH 7.0, 30 grams lipase): 186 µmol/min
rate of ester hydrolysis ([2]; at the end (6.8 days)): 25 µmol/min

water solubility [1]: roughly 0.4 mM
Solubility [1]: 0.4 mM (≈ 115 µg/mL)
SMILES: CC(C)Cc1ccc(C(C)C(=O)OCC(F)(F)F)cc1 (centres unmarked) [Compound 19, 2,2,2-Trifluoroethyl Ester of 2-(4-Isobutylphenyl)propanoic Acid]
average hydrolytic rate ([8]; first 60 minutes, neat liquid ester, pH 7.7, 3.0 grams lipase): 160 µmol/min
conversion to acid ([8]; over the next 76 hours): about 9.8%
average hydrolysis rate ([8]; over the next 76 hours, by titrimetry): 21 µmol/min

% e.e. ([9]; acid product (R), pH 7.0, 20 hours, 20-22 C): > 99%
Solubility [1]: 2180 mM
SMILES: CC(C)Cc1ccc(C(C)C(=O)OCC[N+](C)(C)C)cc1 (centres unmarked) [Compound 10, Iodide Salt of 2-(N,N,N-Trimethylammonium)ethyl Ester of 2-(4-Isobutylphenyl)propanoic Acid]

% CONVERSION ([10]; 100 mg Prozyme 6, 10 mmol ester in 100 ml 0.2M phosphate buffer pH 7.0, 25 C, 18 hours): 34.0%
% e.e. ([10]; 18 hours): 21.6%
Solubility [1]: 1610 mM
SMILES: COc1ccc2cc(C(C)C(=O)OCCC[N+](C)(C)C)ccc2c1 (centres unmarked) [Compound 12, Methyl Sulfate Salt of 3-(N,N,N-Trimethylammonium)propyl Ester of 2-(6-Methoxy-2-naphthyl)propanoic Acid]

conversion (enzymatic hydrolysis) ([9]; 2.0 gm ester in 400 ml 50 mM sodium phosphate pH 7.5, 25 degrees, 16 hours): 18%
enantiomeric excess of R isomer of naproxen (acid product) ([9]; pH 7.5, 25 degrees, 16 hours): 61.2%
enantiomeric excess of S isomer of Naproxen (from unconverted ester hydrolysed at pH 12) ([9]; pH 7.5, 25 degrees, 16 hours): 45.5%
SMILES: COc1ccc2cc(C(C)C(=O)OCS(=O)(=O)O)ccc2c1 (centres unmarked) [Compound 9, Sodium Salt of Sulfomethyl Ester of 2-(6-Methoxy-2-naphthyl)propanoic Acid]

Solubility [1]: 10 mM (≈ 2770 µg/mL)
SMILES: CC(C)Cc1ccc(C(C)C(=O)OCCN(C)C)cc1 (centres unmarked) [2-(N,N-dimethylamino)ethyl ester of ibuprofen, reference compound]

reaction completion ([10]; 35 mg Prozyme 6, 10 mmol ester in 100 ml 0.2M sodium phosphate pH 7.0, 30 C, 1 hour): 22.5%
SMILES: CC(Oc1ccc(Cl)cc1)C(=O)OCS(=O)(=O)O (centres unmarked) [Compound 17, Sodium Salt of the Sulfomethyl Ester of 2-(4-Chlorophenoxy)propanoic Acid]
